Results published in patent US20160274087A1, “SCREENING ASSAY FOR AGENTS THAT INFLUENCE BETA CELL NUMBER AND/OR PHENOTYPE” (VRIJE UNIVERSITEIT BRUSSEL, priority 2013, published 2016).

Experiments:
INS1 832/13 cell line = assay: Proliferation of INS1 832/13 cell line in serum-free medium; type: cell-based; conditions: serum-free culture medium; data not shown
[1] = molecular target: T1, mineralocorticoid receptor (MR) (Homo sapiens, UniProt P08235); conditions: cited from earlier work
T1 sequence (P08235 1-984): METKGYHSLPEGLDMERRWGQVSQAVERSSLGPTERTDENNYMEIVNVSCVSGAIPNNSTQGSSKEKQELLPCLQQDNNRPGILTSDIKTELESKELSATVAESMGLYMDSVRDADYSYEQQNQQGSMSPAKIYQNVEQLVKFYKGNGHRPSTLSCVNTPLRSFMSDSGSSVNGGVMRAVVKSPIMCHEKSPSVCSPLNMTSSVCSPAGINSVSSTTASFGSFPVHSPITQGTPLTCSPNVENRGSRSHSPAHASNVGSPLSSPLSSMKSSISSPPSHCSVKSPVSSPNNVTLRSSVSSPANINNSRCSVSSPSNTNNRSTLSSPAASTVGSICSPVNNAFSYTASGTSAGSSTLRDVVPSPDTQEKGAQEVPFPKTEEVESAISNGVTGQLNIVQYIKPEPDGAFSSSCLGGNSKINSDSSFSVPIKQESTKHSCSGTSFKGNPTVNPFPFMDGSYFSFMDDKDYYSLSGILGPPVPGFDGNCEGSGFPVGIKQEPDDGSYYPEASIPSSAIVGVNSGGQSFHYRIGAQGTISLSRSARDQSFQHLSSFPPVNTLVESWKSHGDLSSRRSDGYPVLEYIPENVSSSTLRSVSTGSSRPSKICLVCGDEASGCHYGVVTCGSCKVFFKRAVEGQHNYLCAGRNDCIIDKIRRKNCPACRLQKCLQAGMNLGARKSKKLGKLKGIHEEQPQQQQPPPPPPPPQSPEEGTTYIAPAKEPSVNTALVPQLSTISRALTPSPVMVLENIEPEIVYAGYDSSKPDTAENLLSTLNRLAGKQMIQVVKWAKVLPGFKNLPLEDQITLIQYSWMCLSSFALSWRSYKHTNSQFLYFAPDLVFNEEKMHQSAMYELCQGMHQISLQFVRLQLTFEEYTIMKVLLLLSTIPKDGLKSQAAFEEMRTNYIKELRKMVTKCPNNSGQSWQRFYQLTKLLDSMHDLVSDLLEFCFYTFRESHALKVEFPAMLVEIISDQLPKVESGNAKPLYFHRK

C[C@]12CCC(=O)C=C1CC[C@@H]1[C@@H]2[C@@H](O)C[C@@]2(C)[C@H]1CC[C@]2(O)C(=O)CO [Hydrocortisone, hydrocortisone]
proliferation of INS1 832/13 cell line (INS1 832/13 cell line): does not induce the proliferation
Relative Potencies MR [1]: 1
